How the values were obtained:
CIA rat [1] = assay: Arthritis severity score in collagen-induced arthritis (CIA) animal model; format: in vivo, Lewis rats; design: Arthritis severity score: scale not given here; details: CIA rats; for Progression of arthritis severity after Day 17: compared to the CIA group
Procedure: (§1) Lewis rats were bred under the condition with a temperature of 21° C. to 25° C., a humidity level of 40% to 70%, and a lighting period of 12 hours (7 a.m. to 7 p.m.). The rats had free access to the feed. All the rats were monitored for at least 6 days to ensure their health to prepare a collagen-induced arthritis (CIA) animal model.
(§2) A collagen emulsion was prepared by evenly mixing collagen and IFA at a volume ratio of 1:1 using a homogenizer in a cold water bath. On Day 1, 200 μL of the collagen emulsion was injected subcutaneously at the base of the rat's tail, followed by a booster injection of 100 μL of the collagen emulsion at a different site on the base of the tail on Day 8. All the rats successfully developed CIA by Day 17 (hereinafter referred to as “CIA rat”).
(§3) As described in Preparation example C, all the rats successfully developed CIA by Day 17. Therefore, the CIA rats were randomly divided into four groups from Day 17 to administer the following solutions until the rats were sacrificed on Day 24, wherein the healthy rats not to induce arthritis were served as the control group: • (1) Control group (five healthy rats): 2 mL of PBS; • (2) CIA group (five CIA rats): 2 mL of PBS; • (3) MTX group (three CIA rats): 1 mg of MTX per kilogram of rat, dissolved in 2 mL of PBS; • (4) CMC-Zn group (five CIA rats): CMC-Zn at a zinc concentration of 0.075 mg, dissolved in 2 mL of PBS; and • (5) Modified CMC-Zn group (five CIA rats): modified CMC-Zn at a zinc concentration of 0.075 mg, dissolved in 2 mL of PBS.
(§4) The rat's paws were observed and their paw volumes were measured on Days 0, 3, 7, 10, 14, 17, 21 and 24. The arthritis severity of rats was evaluated by using the qualitative scoring system of Table 3, and the paw volume was determined by the following approach in accordance with the buoyancy principle of Archimedes' law: adding an appropriate amount of water into a beaker; placing the beaker on a scale and resetting to zero; placing the rat's paw into the water and immersing it to the target depth; and recoding the reading once it had stabilized.

CIA rat [2] = assay: Paw volume (average weight percentage of both paws) in collagen-induced arthritis (CIA) animal model; format: in vivo, Lewis rats; details: for Weight percentages of the rats' paws on Day 24 (FIG. 4): Day 24, compared to the untreated CIA rats (p value<0.05); for Weight percentages of the rats' paws over time (FIG. 3): after administration from Day 17, compared to the CIA group
Procedure: as §1, §2, §3, §4

[3] = test system: mouse bone marrow dendritic cells (BMDCs); assay: Flow cytometry analysis of dendritic cell maturation surface markers on treated BMDCs; format: cell-based; details: for Ability to inhibit dendritic cell maturation: all zinc concentrations, directly proportional to the zinc concentration; for CD11c expression level / CD40 expression level / CD80 expression level / CD83 expression level / CD86 expression level / MHC II expression level: 48 hours
Procedure: Mice were sacrificed with carbon dioxide and immersed in 75% alcohol. After immersing for 3 minutes, the mice were removed from the alcohol and wiped. Then, the mouse limbs were fixed on a Styrofoam board. Next, the entire femur and tibia were collected by carefully cutting off the mouse skin and muscle. A filter (100 μm) was placed in a 3-cm dish and 2 ml of RPMI-1640 medium was added into the dish. Two ends of the femur were cut, and the bone marrow was collected by repeatedly washing the femur with the cell medium using a 26 G syringe until the femur appeared white. The bone marrow in the tibia was also collected by the same method. The filter was scraped by the reverse side of 1 mL tip to break up the cell clumps in the bone marrow and washed with the cell medium in the dish several times. Then, the cell medium in the dish was collected and placed into a tube to centrifuge at 1500 rpm for 3 minutes. After centrifuging, the supernatant was removed and 1 mL of RBC lysis buffer was added into the tube. After standing for 5 minutes, the tube was centrifuged at 1500 rpm for 3 minutes again. After removing the supernatant, a milky-white pellet was obtained. The pellet was re-suspended with the DC medium and the cell number of the suspension thus obtained was counted.
The cell concentration of the suspension was adjusted to 5×10^5 cells per mL. 1 mL of the suspension was added into each well of a 24-well plate. The 24-well plate was incubated at 37.5° C. and 5% CO2 for 2 days. The unattached granulocytes were removed by carefully removing the cell medium, and then, 0.5 mL of DC medium was added into each well of the 24-well plate. After incubating 3 days, the medium in each well was replaced with 0.5 mL of fresh DC medium and continuously incubated for 3 days. The 24-well plate was taken out from the incubator, and the medium in each well was carefully removed. The bottom of each well was gently pipetted with 2 mL of PBS several times. The pipetted PBS was collected into a centrifuge tube to count the number of cells and analyze the expression level of CD11c using flow cytometry.
(§5) After culturing for 48 hours, the cells and their medium in each group were collected to conduct the following analysis, respectively.
The cells obtained from (1-1) were counted and the cell concentration was adjusted with PBS to provide a cell suspension of 1×10^5 cells to 5×10^5 cells per 100 μL. 100 μL of the cell suspension was evenly mixed with 20 μL of FcR Blocking Reagent, and the mixture thus obtained was placed at 4° C. for 10 minutes. Furthermore, the antibodies of CD11c, CD40, CD80, CD83, CD86, MHC II and corresponding isotype control were added into the tubes containing the mixture, respectively. After vortexing for 1 second, the tubes were placed at room temperature in the dark for 15 minutes. Then, 300 μL of PBS was added into each tube, and after vortexing for 1 second, the tubes were centrifuged at 200×g for 5 minutes. The resulting supernatants were removed and the cells were re-suspended with 300 μL of PBS. Finally, the cell suspensions thus obtained were analyzed by flow cytometry, wherein all the cell suspension of each group were kept on ice in the dark until the analysis was conducted.

IL12P70 = assay: ELISA analysis of IL12P70 in the medium of treated BMDCs; format: cell-based, mouse; details: BMDC media, all groups of the substance
Procedure: The secretion level of IL12P70 in immature DCs is very low, whereas mature DCs secret a large amount of IL12P70, allowing it an indicator of DC maturation. In this example, the expression levels of the surface markers (CD11c, CD40, CD83, CD86) on the BMDCs were analyzed using flow cytometry, and the secretion level of IL12p70 in the BMDCs' medium was measured with an ELISA kit, to observe the effects of amino acid-chelated zinc on dendritic cell maturation.
as §5
The media obtained from each group were placed into tubes, respectively, and the tubes were centrifuged (400×g) at 4° C. for 10 minutes to collect the supernatants. The IL12p70 standard was subjected to a serial dilution to provide a standard curve. The standards at various concentrations and the supernatants obtained from each group were added into a 96-well plate pre-coating with IL12p70 antibodies (100 μL per well, in duplicate). […] The absorbance value at 450 nm (OD450) in each well was detected within 3 minutes. Based on the standard curve resulted from the absorbance values of IL12p70 standards at various concentrations, the IL12p70 amounts corresponding to the absorbance values of each group were calculated as shown in Table 2.

[4] = Day 0 (before administration, which starts Day 17)
[5] = Day 17 (start of administration)
[6] = Day 21, administered from Day 17
[7] = Day 24, administered from Day 17
[8] = zinc concentration 3.27 mg/mL (low concentration)
[9] = zinc concentration 6.54 mg/mL (medium concentration)
[10] = zinc concentration 13.08 mg/mL (high concentration)

CN(Cc1cnc2nc(N)nc(N)c2n1)c1ccc(C(=O)N[C@@H](CCC(=O)O)C(=O)O)cc1 [MTX, Methotrexate, reference compound] gave an Arthritis severity score (CIA rat [1]; [4]) of 0, an Arthritis severity score (CIA rat [1]; Day 3 (before administration)) of 0 and an Arthritis severity score (CIA rat [1]; Day 7 (before administration)) of 0. The Arthritis severity score (CIA rat [1]; Day 10 (before administration)) was 0, the Arthritis severity score (CIA rat [1]; Day 14 (before administration)) was 0.3 and the Arthritis severity score (CIA rat [1]; [5]) was 3.7. For the same compound, the Arthritis severity score (CIA rat [1]; [6]) was 3.7, the Arthritis severity score (CIA rat [1]; [7]) was 3 and the “Progression of arthritis severity after Day 17” value (CIA rat [1]) was “slower progression or even reduction in arthritis severity”. The “Weight percentages of the rats' paws on Day 24 (FIG. 4)” value (CIA rat [2]) was “significantly decreased” and the “Weight percentages of the rats' paws over time (FIG. 3)” value (CIA rat [2]) was “gradually decreased”.

With O=S(=O)([O-])[O-].[Zn+2] [Zinc sulfate, reference compound] the “Ability to inhibit dendritic cell maturation” value [3] was “demonstrated the ability to inhibit dendritic cell maturation”, the CD11c expression level [3, 8] was 87.2 and the CD40 expression level [3, 8] was 16.1. For the same compound, the CD80 expression level [3, 8] was 46.7, the CD83 expression level [3, 8] was 12.9 and the CD86 expression level [3, 8] was 49.2. The “MHC II expression level” value [3, 8] was 16.8, the CD11c expression level [3, 9] was 85.4 and the CD40 expression level [3, 9] was 11.2. The CD80 expression level [3, 9] was 37.2, the CD83 expression level [3, 9] was 10.4 and the CD86 expression level [3, 9] was 41.3. For the same compound, the “MHC II expression level” value [3, 9] was 11.9, the CD11c expression level [3, 10] was 85.6 and the CD40 expression level [3, 10] was 8.5. The CD80 expression level [3, 10] was 26.8, the CD83 expression level [3, 10] was 6.68 and the CD86 expression level [3, 10] was 26. For the same compound, the “MHC II expression level” value [3, 10] was 8.08 and the “IL12P70 in the media” value (IL12P70) was “not detected”.

glycine-chelated zinc [CMC-Zn] was tested, and the “Ability to inhibit dendritic cell maturation” value [3] was “demonstrated the ability to inhibit dendritic cell maturation”, the “Expression levels of CD80 and CD86 compared to the groups of zinc sulfate” value ([3]; low and medium concentration) was “significantly decreased” and the “Expression levels of the markers compared to the Immature DC group” value ([3]; low concentration (3.27 mg/mL zinc)) was “even lower”. It also gave a CD11c expression level [3, 8] of 88.3, a CD40 expression level [3, 8] of 25 and a CD80 expression level [3, 8] of 39. The CD83 expression level [3, 8] was 16.1, the CD86 expression level [3, 8] was 37.9 and the “MHC II expression level” value [3, 8] was 25. The CD11c expression level [3, 9] was 87.8, the CD40 expression level [3, 9] was 13.1 and the CD80 expression level [3, 9] was 23.7. The CD83 expression level [3, 9] was 10.3, the CD86 expression level [3, 9] was 23.1 and the “MHC II expression level” value [3, 9] was 14. The CD11c expression level [3, 10] was 74.1, the CD40 expression level [3, 10] was 6.24 and the CD80 expression level [3, 10] was 26.5. The CD83 expression level [3, 10] was 4.38, the CD86 expression level [3, 10] was 25.4 and the “MHC II expression level” value [3, 10] was 6.41. The “IL12P70 in the media” value (IL12P70) was “not detected”, the Arthritis severity score (CIA rat [1]; [4]) was 0 and the Arthritis severity score (CIA rat [1]; Day 3 (before administration)) was 0. It also gave an Arthritis severity score (CIA rat [1]; Day 7 (before administration)) of 0, an Arthritis severity score (CIA rat [1]; Day 10 (before administration)) of 0 and an Arthritis severity score (CIA rat [1]; Day 14 (before administration)) of 0.4. The Arthritis severity score (CIA rat [1]; [5]) was 3.8, the Arthritis severity score (CIA rat [1]; [6]) was 4.4 and the Arthritis severity score (CIA rat [1]; [7]) was 4.6. For the same compound, the “Progression of arthritis severity after Day 17” value (CIA rat [1]) was “slower progression or even reduction in arthritis severity”, the “Weight percentages of the rats' paws on Day 24 (FIG. 4)” value (CIA rat [2]) was “significantly decreased” and the “Weight percentages of the rats' paws over time (FIG. 3)” value (CIA rat [2]) was “gradually decreased”.
